In ChEMBL document CHEMBL4020836, “Discovery of 7-Oxo-2,4,5,7-tetrahydro-6 H-pyrazolo[3,4- c]pyridine Derivatives as Potent, Orally Available, and Brain-Penetrating Receptor Interacting Protein 1 (RIP1) Kinase Inhibitors: Analysis of Structure-Kinetic Relationships” (J Med Chem, 2018):

Legend:
[1] = Metabolic stability in human liver microsomes; format: ADME, microsome; details: read-out: Stability
[2] = Metabolic stability in mouse liver microsomes; format: ADME, microsome; details: read-out: Stability

| microsomal CLint [1] | microsomal CLint [2] | Structure (SMILES) |
| --- | --- | --- |
| 101 µL/min/mg | 100 µL/min/mg | CN1C(=O)[C@@H](N2CCc3c(nn(Cc4ccccc4)c3Cl)C2=O)COc2ccccc21 |
| 13 µL/min/mg | < 1 µL/min/mg | CNC(=O)c1ccc2c(c1)OC[C@H](N1CCc3c(nn(Cc4ccccc4)c3Cl)C1=O)C(=O)N2C |
